Structures are written as SMILES. In brackets after ≈: the same amount, converted by molar mass. Activity calls are given as the source filed them. No cut-off for these calls is given here.

For data set [1], the system named is Candida albicans. Description: Antifungal activity against fluconazole-resistant Candida albicans 901 assessed as inhibition of fungal growth incubated for 24 hrs by broth microdilution method. The class given is functional. (In general: Broth dilution looks for growth in wells or tubes with falling amounts of substance.)
The test system of data set [2] is Candida tropicalis. Description: Antifungal activity against Candida tropicalis 0370354 assessed as inhibition of fungal growth incubated for 24 hrs by broth microdilution method. The class given is functional.
For data set [3], the system named is Candida albicans. In words: Antifungal activity against fluconazole-resistant Candida albicans 904 assessed as inhibition of fungal growth incubated for 24 hrs by broth microdilution method. The class given is functional.
Data set [4] deals with Aspergillus fumigatus. Description: Antifungal activity against Aspergillus fumigatus 0504656 assessed as inhibition of fungal growth incubated for 48 hrs by broth microdilution method. The class given is functional.
Data set [5] deals with Candida albicans. In words: Potency index, ratio of Ketoconazole MIC80 to test compound MIC80 for antifungal activity against Candida albicans SC5314 assessed as inhibition of fungal growth incubated for 24 hrs by broth microdilution method. The class given is functional.
In data set [6] the test system is Nannizzia gypsea. In words: Antifungal activity against Microsporum gypseum 0310388 assessed as inhibition of fungal growth incubated for 24 hrs by broth microdilution method. The class given is functional.
For data set [7], the system named is Candida albicans. In words: Antifungal activity against Candida albicans Y0109 assessed as inhibition of fungal growth incubated for 24 hrs by broth microdilution method. The class given is functional.
For data set [8], the system named is Candida albicans. In words: Potency index, ratio of Fluconazole MIC80 to test compound MIC80 for antifungal activity against Candida albicans SC5314 assessed as inhibition of fungal growth incubated for 24 hrs by broth microdilution method. The class given is functional.
For data set [9], the system named is Cryptococcus neoformans. In words: Antifungal activity against Cryptococcus neoformans ATCCBLS108 assessed as inhibition of fungal growth incubated for 72 hrs by broth microdilution method. The class given is functional.
Data set [10] has as its system Candida albicans. In words: Antifungal activity against Candida albicans SC5314 assessed as inhibition of fungal growth incubated for 24 hrs by broth microdilution method. The class given is functional.
The subject of data set [11] is Trichophyton rubrum. In words: Antifungal activity against Trichophyton rubrum 0501124 assessed as inhibition of fungal growth incubated for 24 hrs by broth microdilution method. The class given is functional.
Data set [12] concerns Candida albicans. Description: Potency index, ratio of Fluconazole MIC80 to test compound MIC80 for antifungal activity against Candida albicans Y0109 assessed as inhibition of fungal growth incubated for 24 hrs by broth microdilution method. The class given is functional.
Data set [13] relates to Candida albicans. In words: Potency index, ratio of Ketoconazole MIC80 to test compound MIC80 for antifungal activity against Candida albicans Y0109 assessed as inhibition of fungal growth incubated for 24 hrs by broth microdilution method. The class given is functional.
Data set [14] has as its system Candida parapsilosis. In words: Antifungal activity against Candida parapsilosis 0306392 assessed as inhibition of fungal growth incubated for 24 hrs by broth microdilution method. The class given is functional. As to conditions: Lodderomyces parapsilosis.
The test system of data set [15] is NIH3T3. In words: Cytotoxicity against mouse NIH/3T3 cells assessed as reduction in cell viability at below 16 microg/ml incubated for 24 hrs by CCK-8 assay. The class given is toxicity, cell-based. Conditions: nih3t3, 24 h, dose < 16 µg/ml. (In general: Tetrazolium assays rely on reduction of a dye to a coloured formazan, in cell work by metabolically active cells.)

The test system of data set [16] is Candida parapsilosis. Description: Potency index, ratio of Ketoconazole MIC80 to test compound MIC80 for antifungal activity against Candida parapsilosis 0306392 assessed as inhibition of fungal growth incubated for 24 hrs by broth microdilution method. The class given is functional.
For data set [17], the system named is Candida parapsilosis. In words: Potency index, ratio of Itraconazole MIC80 to test compound MIC80 for antifungal activity against Candida parapsilosis 0306392 assessed as inhibition of fungal growth incubated for 24 hrs by broth microdilution method. The class given is functional.
Data set [18] relates to Candida parapsilosis. In words: Potency index, ratio of Fluconazole MIC80 to test compound MIC80 for antifungal activity against Candida parapsilosis 0306392 assessed as inhibition of fungal growth incubated for 24 hrs by broth microdilution method. The class given is functional.
The test system of data set [19] is Candida parapsilosis. In words: Antifungal activity against Candida parapsilosis 0306392 assessed as inhibition of fungal growth at 4 ug/ml incubated for 48 hrs by spot assay. The class given is functional, organism-based. As to conditions: dose 4.0 µg/ml.
Data set [20] deals with Candida tropicalis. In words: Antifungal activity against Candida tropicalis 0370354 assessed as inhibition of fungal growth at 4 ug/ml incubated for 48 hrs by spot assay. Conditions: dose 4.0 µg/ml. The class given is functional, organism-based.
Data set [21] deals with Candida albicans. Description: Antifungal activity against Candida albicans SC5314 assessed as inhibition of fungal growth at 4 ug/ml incubated for 48 hrs by spot assay. The class given is functional, organism-based. As to conditions: dose 4.0 µg/ml.
The subject of data set [22] is Candida albicans. Description: Antifungal activity against fluconazole-resistant Candida albicans 901 assessed as inhibition of fungal growth at 4 ug/ml incubated for 48 hrs by spot assay. The class given is functional, organism-based. As to conditions: dose 4.0 µg/ml.
The subject of data set [23] is Cryptococcus neoformans. In words: Antifungal activity against Cryptococcus neoformans ATCCBLS108 assessed as inhibition of fungal growth at 4 ug/ml incubated for 48 hrs by spot assay. The class given is functional, organism-based. Conditions: dose 4.0 µg/ml.
The test system of data set [24] is Candida albicans. In words: Antifungal activity against fluconazole-resistant Candida albicans 904 assessed as inhibition of fungal growth at 4 ug/ml incubated for 48 hrs by spot assay. The class given is functional, organism-based. Conditions: dose 4.0 µg/ml.

A word on the MIC80: it is the lowest concentration that inhibits either 80% of growth or 80% of the strains tested, depending on the study. `CCCN(CCC)CCc1cn(C[C@H]2CO[C@](Cn3ccnc3)(c3ccc(O)cc3F)O2)nn1` (mixture of isomers): the MIC80 in data set [1] was over 64 µg/mL; in [2], 1 µg/mL; in data set [3] it was over 64 µg/mL; in data set [4], over 64 µg/mL; in data set [6], 0.125 µg/mL; in data set [7], 0.016 µg/mL. For the same compound, the MIC80 in data set [9] turned out to be 0.125 µg/mL; in [10], 0.016 µg/mL; in data set [11], 0.125 µg/mL; in data set [14], 0.25 µg/mL. Besides, the Ratio stood at 64 in [5], 16 in data set [8], 16 in data set [12] and 64 in data set [13].

For `CCCCCOc1ccc(-c2cn(C[C@H]3CO[C@](Cn4ccnc4)(c4ccc(O)cc4F)O3)nn2)cc1` (mixture of isomers), the MIC80 is over 64 µg/mL in data set [1]; 1 µg/mL in [2]; over 64 µg/mL in [3]; 16 µg/mL in data set [4]; 0.25 µg/mL in data set [6]; 0.016 µg/mL in data set [7]. Moreover, the MIC80 in [9] was 0.063 µg/mL; in [10], 0.016 µg/mL; in data set [11], 0.5 µg/mL; in data set [14] it was 0.125 µg/mL. Also, the Ratio in data set [5] turned out to be 64; in data set [8], 16; in data set [12], 16; in data set [13], 64.

For `OCCC1CCN(CCc2cn(C[C@H]3CO[C@](Cn4ccnc4)(c4ccc(O)cc4F)O3)nn2)CC1` (mixture of isomers), the MIC80 was 2 µg/mL in data set [1]; 1 µg/mL in [2]; 16 µg/mL in data set [3]; over 64 µg/mL in [4]; 0.25 µg/mL in data set [6]; 0.016 µg/mL in data set [7]. For the same compound, the MIC80 was determined as 0.125 µg/mL in [9], 0.016 µg/mL in [10], 0.125 µg/mL in data set [11] and 0.125 µg/mL in data set [14]. For the same compound, the Activity result in [15] is listed as “Non-Toxic”. Besides, the Ratio in data set [5] was 64; in [8], 16; in [12] it was 16; in data set [13] it was 64.

On to `Oc1ccc([C@@]2(Cn3ccnc3)OC[C@H](Cn3cc(CCN4CCCCC4)nn3)O2)c(F)c1` (mixture of isomers), for which the MIC80 was 0.125 µg/mL in data set [2]; over 64 µg/mL in data set [4]; 0.25 µg/mL in [6]; 0.063 µg/mL in data set [7]; 0.063 µg/mL in data set [9]; 0.063 µg/mL in data set [10]. Also, the figures for the MIC80 in data set [11] and in [14] were 0.25 µg/mL and 0.063 µg/mL, respectively. The Ratio in data set [16] was found to be 32; in [17] it was 4; in [18] it was 16.

For the compound `OCC1CCN(CCc2cn(C[C@H]3CO[C@](Cn4ccnc4)(c4ccc(O)cc4F)O3)nn2)CC1` (mixture of isomers), the MIC80 in data set [1] worked out at 2 µg/mL; in [2], 0.063 µg/mL; in [3], 8 µg/mL; in data set [4] it was 16 µg/mL; in data set [6], 0.25 µg/mL; in data set [7] it was 0.016 µg/mL. The MIC80 came out at 0.063 µg/mL in data set [9], 0.016 µg/mL in [10], 0.5 µg/mL in data set [11] and 0.063 µg/mL in [14]. For the same compound, the result in data set [19], in data set [20], in data set [21], in data set [22], in [23] and in data set [24] was Active. In addition, the Activity result in [15] is “Non-Toxic”. In addition, the Ratio was found to be 64 in [5], 16 in data set [8], 16 in data set [12] and 64 in data set [13].

In the case of `CCN(CC)CCc1cn(C[C@H]2CO[C@](Cn3ccnc3)(c3ccc(O)cc3F)O2)nn1` (mixture of isomers), the MIC80 in data set [1] was over 64 µg/mL; in data set [2], 0.125 µg/mL; in data set [3], over 64 µg/mL; in data set [4], 16 µg/mL; in data set [6], 0.125 µg/mL; in data set [7] it was 0.016 µg/mL. Besides, the MIC80 worked out at 0.063 µg/mL in data set [9], 0.016 µg/mL in [10], 0.25 µg/mL in data set [11] and 0.125 µg/mL in data set [14]. The Ratio is 64 in [5], 16 in [8], 16 in [12] and 64 in data set [13].

With `Oc1ccc([C@@]2(Cn3ccnc3)OC[C@H](Cn3cc(CCN4CCOCC4)nn3)O2)c(F)c1` (mixture of isomers), the MIC80 in data set [2] was 0.125 µg/mL; in [4], over 64 µg/mL; in data set [6] it was 0.25 µg/mL; in data set [7], 0.063 µg/mL; in [9], 0.063 µg/mL; in data set [10], 0.063 µg/mL. Besides, the figures for the MIC80 in data set [11] and in [14] were 0.5 µg/mL and 0.125 µg/mL, respectively. Further, the results for the Ratio in [16], in data set [17] and in data set [18] were 32, 4 and 16, respectively.

For the compound `OC(Cn1cncn1)(Cn1cncn1)c1ccc(F)cc1F` [FLUCONAZOLE], the MIC80 in data set [1] is over 64 µg/mL; in data set [2], 16 µg/mL (≈ 52.2 µM); in data set [3] it was over 64 µg/mL; in data set [4] it was over 64 µg/mL; in data set [6], 1 µg/mL (≈ 3.27 µM); in [7], 0.25 µg/mL (≈ 0.816 µM). Moreover, the MIC80 was 1 µg/mL (≈ 3.27 µM) in data set [9], 0.25 µg/mL (≈ 0.816 µM) in data set [10], 4 µg/mL (≈ 13.1 µM) in data set [11] and 1 µg/mL (≈ 3.27 µM) in data set [14]. Further, the outcome in data set [19], in [20], in data set [21] and in [23] was Active. The outcome in data set [22] and in data set [24] was inactive.

The values above are taken from ChEMBL document CHEMBL5356967, “Design, synthesis, evaluation and optimization of novel azole analogues as potent antifungal agents” (Bioorg Med Chem, 2024).
